Measured values: patent publication US20090053168A1, “TREATMENTS OF B-CELL PROLIFERATIVE DISORDERS” (priority 2007, published 2009)
Where two headings read alike, the source gives them in different places.

Experiments:
[1] = test system: mantle cell lymphoma cell line Mino; test: Anti-proliferation assay (ATPLite, 72 h), Mino; assay type: cell-based, human
Description: (§1) All of the cell lines were cultured in RPMI-1640 media supplemented with 10% FBS except OCI Ly10 cells (IMDM media supplemented with 20% human serum). The ANBL-6 cell line culture media also contained 10 ng/ml IL-6. MM.1S, MM.1R, SU-DHL6, Karpas 422, and OCI ly10 cells were provided by the Dana Farber Cancer Institute. ANBL-6 cells were provided by Bob Orlowsli (M.D. Anderson Cancer Research Center). H929, RPMI-8226, GA-10, Farage, Mino, JVM-13, Pfeiffer, Toledo, and Kusami-1 cells were from ATCC (Cat #'s CCL-155, CRL-9068, CRL-2392 CRL-2630, CRL-3000, CRL-3003, CRL-2632, CRL-2631, and CRL-2724 respectively). MOLP-8, OPM2, EJM, and KSM-12-PE cells were from DSMZ.
(§2) Compounds were prepared in DMSO at 1000× the highest desired concentration. Master plates were generated consisting of serially diluted compounds in 2- or 3-fold dilutions in 384-well format. For single agent dose response curves, the master plates consisted of 9 individual compounds at 12 concentrations in 2- or 3-fold dilutions. For combination matrices, master plates consisted of individual compounds at 6 or 9 concentrations at 2- or 3-fold dilutions.
(§3) The average untreated well value (avg. untreated wells) is the arithmetic mean of 40 wells from the same assay plate treated with vehicle alone. Negative inhibition values result from local variations in treated wells as compared to untreated wells.
(§4) The uncertainty of each fitted parameter was estimated from the range over which the change in reduced chi-squared was less than one, or less than minimum reduced chi-squared if that minimum exceeded one, to allow for underestimated σI errors.
(§5) Single agent curve data were used to define a dilution series for each compound to, be used for combination screening in a 6×6 matrix format. […] For compounds with no detectable single agent activity, a dilution factor of 4 was used, starting from the highest achievable concentration.
(§6) The Loewe additivity model was used to quantify combination effects. Combinations were ranked initially by Additivity Excess Volume, which is defined as ADD Volume=ΣCX, CY(Idata−ILoewe). where ILoewe(CX,CY) is the inhibition that satisfies (CX/ECX)+(CY/ECY)=1, and ECX,Y are the effective concentrations at ILoewe for the single agent curves. A “Synergy Score” was also used, where the Synergy Score S=log fX log fY ΣIdata (Idata−ILoewe), summed over all non-single-agent concentration pairs, and where log fX,Y is the natural logarithm of the dilution factors used for each single agent.

OPM2 cells = test: Anti-proliferation assay (ATPLite, 72 h), OPM2; assay type: cell-based, human; details: for synergy score: in combination with CGS-21680, OPM-8
RPMI-8226 cells = test: Anti-proliferation assay (ATPLite, 72 h), RPMI-8226; assay type: cell-based; details: combination with dexamethasone; Loewe-based Synergy Score; 72 h
H929 cells = test: Anti-proliferation assay (ATPLite, 72 h), H929; assay type: cell-based; details: combination with dexamethasone; Loewe-based Synergy Score; 72 h
[2] = test system: Farage (non-Hodgkin's B cell lymphoma) cells; test: Anti-proliferation assay (ATPLite, 72 h), Farage; assay type: cell-based; details: x dexamethasone
MM.1S cells [3] = test system: MM.1S cells
MM.1S cells [4] = test: Anti-proliferation assay (ATPLite, 72 h), MM.1S; details: for percent inhibition of cell proliferation: DEX 0 nM; for percent inhibition of cell proliferation / synergy score: MM.1S; for IC50: read-out: IC50 (no IL-6); for activity and synergy in antiproliferation assays: RPMI-8226, H929, MM.1S and MM.1R MM cell lines; for synergy score: in combination with CGS-21680
[5] = test system: mantle cell lymphoma cell line JVM-13; test: Anti-proliferation assay (ATPLite, 72 h), JVM-13; assay type: cell-based, human
Description: as §1, §2, §3, §4, §5, §6

[6] = test system: GA-10 (Burkitt's lymphoma) cells; test: Anti-proliferation assay (ATPLite, 72 h), GA-10; assay type: cell-based; details: x dexamethasone
ANBL-6 cells = test: Anti-proliferation assay (ATPLite, 72 h), ANBL-6; assay type: cell-based; details: in combination with CGS-21680
MOLP-8 cells = test: Anti-proliferation assay (ATPLite, 72 h), MOLP-8; assay type: cell-based; details: in combination with CGS-21680
KSM-12-PE cells = test: Anti-proliferation assay (ATPLite, 72 h), KSM-12-PE; assay type: cell-based; details: in combination with CGS-21680; KSM-12-PE
EJM cells = test: Anti-proliferation assay (ATPLite, 72 h), EJM; assay type: cell-based; details: in combination with CGS-21680
[7] = Homo sapiens, MM1.S, read-out: percent inhibition of cell proliferation

With `CC(/C=C/C(=O)NO)=C\[C@@H](C)C(=O)c1ccc(N(C)C)cc1` [Trichostatin A] the “percent inhibition of cell proliferation” value ([1]; Trichostatin A 0.0063 μM alone) was 24%, the “percent inhibition of cell proliferation” value ([1]; Trichostatin A 0.025 μM alone) was 78% and the “percent inhibition of cell proliferation” value ([1]; Trichostatin A 0.05 μM alone) was 100%. For the same molecule, the “percent inhibition of cell proliferation” value ([1]; Trichostatin A 0.1 μM alone) was 100%, the “percent inhibition of cell proliferation” value (OPM2 cells; Trichostatin A 0.0063 μM alone) was 13% and the “percent inhibition of cell proliferation” value (OPM2 cells; Trichostatin A 0.025 μM alone) was 48%. For the same molecule, the “percent inhibition of cell proliferation” value (OPM2 cells; Trichostatin A 0.05 μM alone) was 76% and the “percent inhibition of cell proliferation” value (OPM2 cells; Trichostatin A 0.1 μM alone) was 99%.
`CNC(=O)[C@H]1O[C@@H](n2cnc3c(NCc4cccc(I)c4)nc(Cl)nc32)[C@H](O)[C@@H]1O` [Chloro-IB-MECA, 2-chloro-N^6-(3-iodobenzyl)-5′-N-methylcarboxamidoadenosine] was tested, and the “Synergy score with dexamethasone, RPMI-8226” value (RPMI-8226 cells) was 5.61, the “Synergy score with dexamethasone, H929” value (H929 cells) was 5.29 and the synergy score [2] was 3.17. The “Percent inhibition of cell growth by Chloro-IB-MECA” value (“Percent inhibition of cell growth” below) (MM.1S cells [3]; Cl-IB-MECA 0.19 μM, 78 nM SCH58261) was 5.2%, the “Percent inhibition of cell growth” value (MM.1S cells [3]; Cl-IB-MECA 0.19 μM, 87 nM MRS1523) was 19% and the “Percent inhibition of cell growth” value (MM.1S cells [3]; Cl-IB-MECA 0.19 μM, 89 nM DPCPX) was 7.4%. For the same molecule, the “Percent inhibition of cell growth” value (MM.1S cells [3]; Cl-IB-MECA 0.19 μM, 89 nM MRS1754) was 25%, the “Percent inhibition of cell growth” value (MM.1S cells [3]; Cl-IB-MECA 0.19 μM, 150 nM SCH58261) was −3.8% and the “Percent inhibition of cell growth” value (MM.1S cells [3]; Cl-IB-MECA 0.19 μM, 170 nM MRS1523) was 26%. The “Percent inhibition of cell growth” value (MM.1S cells [3]; Cl-IB-MECA 0.19 μM, 174 nM DPCPX) was 12%, the “Percent inhibition of cell growth” value (MM.1S cells [3]; Cl-IB-MECA 0.19 μM, 175 nM MRS1754) was 21% and the “Percent inhibition of cell growth” value (MM.1S cells [3]; Cl-IB-MECA 0.19 μM, no antagonist) was 20%. The “Percent inhibition of cell growth” value (MM.1S cells [3]; Cl-IB-MECA 1.5 μM, 78 nM SCH58261) was 8.1%, the “Percent inhibition of cell growth” value (MM.1S cells [3]; Cl-IB-MECA 1.5 μM, 87 nM MRS1523) was 54% and the “Percent inhibition of cell growth” value (MM.1S cells [3]; Cl-IB-MECA 1.5 μM, 89 nM DPCPX) was 47%. For the same molecule, the “Percent inhibition of cell growth” value (MM.1S cells [3]; Cl-IB-MECA 1.5 μM, 89 nM MRS1754) was 50%, the “Percent inhibition of cell growth” value (MM.1S cells [3]; Cl-IB-MECA 1.5 μM, 150 nM SCH58261) was 4.3% and the “Percent inhibition of cell growth” value (MM.1S cells [3]; Cl-IB-MECA 1.5 μM, 170 nM MRS1523) was 61%. For the same molecule, the “Percent inhibition of cell growth” value (MM.1S cells [3]; Cl-IB-MECA 1.5 μM, 174 nM DPCPX) was 46%, the “Percent inhibition of cell growth” value (MM.1S cells [3]; Cl-IB-MECA 1.5 μM, 175 nM MRS1754) was 45% and the “Percent inhibition of cell growth” value (MM.1S cells [3]; Cl-IB-MECA 1.5 μM, no antagonist) was 61%. The “Percent inhibition of cell growth” value (MM.1S cells [3]; Cl-IB-MECA 3.1 μM, 78 nM SCH58261) was 28%, the “Percent inhibition of cell growth” value (MM.1S cells [3]; Cl-IB-MECA 3.1 μM, 87 nM MRS1523) was 69% and the “Percent inhibition of cell growth” value (MM.1S cells [3]; Cl-IB-MECA 3.1 μM, 89 nM DPCPX) was 64%. For the same molecule, the “Percent inhibition of cell growth” value (MM.1S cells [3]; Cl-IB-MECA 3.1 μM, 89 nM MRS1754) was 71%, the “Percent inhibition of cell growth” value (MM.1S cells [3]; Cl-IB-MECA 3.1 μM, 150 nM SCH58261) was 16% and the “Percent inhibition of cell growth” value (MM.1S cells [3]; Cl-IB-MECA 3.1 μM, 170 nM MRS1523) was 74%. For the same molecule, the “Percent inhibition of cell growth” value (MM.1S cells [3]; Cl-IB-MECA 3.1 μM, 174 nM DPCPX) was 60%, the “Percent inhibition of cell growth” value (MM.1S cells [3]; Cl-IB-MECA 3.1 μM, 175 nM MRS1754) was 72% and the “Percent inhibition of cell growth” value (MM.1S cells [3]; Cl-IB-MECA 3.1 μM, no antagonist) was 70%. For the same molecule, the “percent inhibition of cell proliferation” value (MM.1S cells [4]; Cl-IB-MECA 0.352 nM, 72 h) was 16%, the “percent inhibition of cell proliferation” value (MM.1S cells [4]; Cl-IB-MECA 1.06 nM, 72 h) was 5.9% and the “percent inhibition of cell proliferation” value (MM.1S cells [4]; Cl-IB-MECA 3.16 nM, 72 h) was 6.3%. For the same molecule, the “percent inhibition of cell proliferation” value (MM.1S cells [4]; Cl-IB-MECA 9.49 nM, 72 h) was 9.1%, the “percent inhibition of cell proliferation” value (MM.1S cells [4]; Cl-IB-MECA 28.5 nM, 72 h) was −0.6% and the “percent inhibition of cell proliferation” value (MM.1S cells [4]; Cl-IB-MECA 85.4 nM, 72 h) was 6.3%. The “percent inhibition of cell proliferation” value (MM.1S cells [4]; Cl-IB-MECA 256 nM, 72 h) was 27%, the “percent inhibition of cell proliferation” value (MM.1S cells [4]; Cl-IB-MECA 769 nM, 72 h) was 71% and the IC50 (MM.1S cells [4]; Homo sapiens, MM1.S) was 838 nM. For the same molecule, the “activity and synergy in antiproliferation assays” value (MM.1S cells [4]) was “active and synergistic” and the “Synergy score with dexamethasone, MM.1S” value (MM.1S cells [4]; combination with dexamethasone, Loewe-based Synergy Score, 72 h) was 8.37.
For `COC1=C2C[C@@H](C)C[C@H](OC)[C@H](O)[C@@H](C)/C=C(\C)[C@H](OC(N)=O)[C@@H](OC)/C=C\C=C(/C)C(=O)NC(=CC1=O)C2=O` [Geldanomycin], the “percent inhibition of cell proliferation” value ([1]; Geldanomycin 0.0064 μM alone) was 4.7%, the “percent inhibition of cell proliferation” value ([1]; Geldanomycin 0.019 μM alone) was 4.3% and the “percent inhibition of cell proliferation” value ([1]; Geldanomycin 0.057 μM alone) was 6.7%. The “percent inhibition of cell proliferation” value ([1]; Geldanomycin 0.17 μM alone) was 14%, the “percent inhibition of cell proliferation” value ([1]; Geldanomycin 0.52 μM alone) was 27% and the “percent inhibition of cell proliferation” value ([5]; Geldanomycin 0.0064 μM alone) was −5.8%. The “percent inhibition of cell proliferation” value ([5]; Geldanomycin 0.019 μM alone) was −7.8%, the “percent inhibition of cell proliferation” value ([5]; Geldanomycin 0.057 μM alone) was 7.6% and the “percent inhibition of cell proliferation” value ([5]; Geldanomycin 0.17 μM alone) was 12%. The “percent inhibition of cell proliferation” value ([5]; Geldanomycin 0.52 μM alone) was 19%.
In the case of `NCCNC(=O)Cc1ccc(NC(=O)Cc2ccc(Nc3ncnc4c3ncn4[C@@H]3O[C@H](CO)[C@@H](O)[C@H]3O)cc2)cc1` [ADAC, N-(4-(2-((4-(2-((2-aminoethyl)amino)-2-oxoethyl)phenyl)amino)-2-oxoethyl)phenyl)-Adenosine], the synergy score [2] is reported as 2.28, the synergy score [6] is reported as 2.43 and the IC50 (MM.1S cells [4]; Homo sapiens, MM1.S) is reported as 623 nM. For the same molecule, the inhibition at 1.17 µM (MM.1S cells [4]; [7]) was 80%, the inhibition at 3.51 µM (MM.1S cells [4]; [7]) was 75% and the inhibition at 10.5 µM (MM.1S cells [4]; [7]) was 82%. The inhibition at 31.6 µM (MM.1S cells [4]; [7]) was 82% and the “activity and synergy in antiproliferation assays” value (MM.1S cells [4]) was “active and synergistic”.
Work on `COc1cccc2c1C(=O)c1c(O)c3c(c(O)c1C2=O)C[C@@](O)(C(=O)CO)C[C@@H]3O[C@H]1C[C@H](N)[C@H](O)[C@H](C)O1` [doxorubicin] yielded a synergy score (ANBL-6 cells) of 2.54, a synergy score (OPM2 cells) of 0.46 and a synergy score (MOLP-8 cells) of 1.16. The synergy score (MM.1S cells [4]) was 1.65, the synergy score (KSM-12-PE cells) was 0.81 and the synergy score (EJM cells) was 1.21.
Work on `Nc1cccc2c1CN(C1CCC(=O)NC1=O)C2=O` (stereo not shown) [lenalidomide] yielded a synergy score (ANBL-6 cells) of 1.45, a synergy score (OPM2 cells) of 1.36 and a synergy score (MOLP-8 cells) of 1.65. The synergy score (MM.1S cells [4]) was 4.87, the synergy score (KSM-12-PE cells) was 0.83 and the synergy score (EJM cells) was 0.32.
